Data from PMC9133036 (Nature Communications, 2022).
Substitutions are numbered along the chain they refer to. pEC50: −log10 of the molar value. Several values for one entry are separate records, joined by “and”; a condition that tells them apart may be missing. Equal entries are not always repeated. Where two headings read alike, the source gives them in different places.

Key:
Type in all cases: cell-based
OX2R R328A = target: T1, OX2R R328A (Homo sapiens, UniProt O43614, R328A); experiment: β-arrestin PathHunter assay, OX2R R328A; details: β-arrestin recruitment
T1 construct: expressed in transfected cells; host or cells: CHO-K1 stably expressing EA β-arrestin2
T1 sequence (O43614 whole entry R328A): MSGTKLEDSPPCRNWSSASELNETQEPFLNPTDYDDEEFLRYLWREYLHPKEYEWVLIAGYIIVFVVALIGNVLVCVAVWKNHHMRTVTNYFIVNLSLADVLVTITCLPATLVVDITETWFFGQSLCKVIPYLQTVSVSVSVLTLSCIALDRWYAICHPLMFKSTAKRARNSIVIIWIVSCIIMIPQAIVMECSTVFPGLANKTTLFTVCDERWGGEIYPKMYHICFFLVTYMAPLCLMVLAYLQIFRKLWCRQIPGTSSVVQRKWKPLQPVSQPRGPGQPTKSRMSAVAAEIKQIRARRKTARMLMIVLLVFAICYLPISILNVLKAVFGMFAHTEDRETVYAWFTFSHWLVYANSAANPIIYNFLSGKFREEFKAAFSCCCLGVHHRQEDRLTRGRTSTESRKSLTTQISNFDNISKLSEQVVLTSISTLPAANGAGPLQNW
Method: (§1) β-Arrestin recruitment activity was measured by using the PathHunter system (DiscoveRX) according to the manufacturer’s instruction. Receptor constructs used were the full-length wild-type (or mutant) human OX2R sequences cloned into pCMV-ProLink (DiscoveRX). CHO-K1 cells stably expressing EA β-arrestin2 (DiscoveRX) were plated on 384 well white plates (Thermo Fisher) at 4000 cells/well in HamF12 (Wako Pure Chemical Industries) supplemented with 10% fetal bovine serum (Corning) and penicillin-streptomycin (Wako Pure Chemical Industries) and incubated overnight at 37 °C under 5% CO2. Cells were transfected with plasmids encoding wild type or each mutant ProLink-tagged human OX2R using FuGENE HD (Promega). […] Detection reagent was added and incubated for 1 h at room temperature. Luminescent signal was detected using an EnVision plate reader (PerkinElmer). β-arrestin assays on different constructs were performed in two or three independent experiments (each done in quadruplicate). Dose response curves (shown in Supplementary Fig. 8) were fitted to the three-parameter model ‘log(agonist) vs response’ in GraphPad Prism to determine pEC50 values.

OX2R T111S = target: T2, OX2R T111S (Homo sapiens, UniProt O43614, T111S); experiment: IP accumulation assay, OX2R T111S
T2 construct: FLAG; expressed in transfected cells; host or cells: HEK293
T2 sequence (O43614 1-444 T111S): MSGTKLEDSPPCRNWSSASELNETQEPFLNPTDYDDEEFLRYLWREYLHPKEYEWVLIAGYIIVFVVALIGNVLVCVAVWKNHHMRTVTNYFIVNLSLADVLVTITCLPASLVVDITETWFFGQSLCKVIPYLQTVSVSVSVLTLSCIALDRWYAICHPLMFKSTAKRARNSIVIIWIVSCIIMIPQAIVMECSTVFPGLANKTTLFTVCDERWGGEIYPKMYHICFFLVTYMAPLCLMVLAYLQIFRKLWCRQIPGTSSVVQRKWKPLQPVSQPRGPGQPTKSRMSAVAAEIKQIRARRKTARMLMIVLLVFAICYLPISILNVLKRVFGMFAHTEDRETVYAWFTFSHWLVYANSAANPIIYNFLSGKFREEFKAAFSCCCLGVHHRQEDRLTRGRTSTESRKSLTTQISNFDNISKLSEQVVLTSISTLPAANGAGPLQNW
Source text: The IP assay was adapted from a prior precedent. HEK293 cells were maintained in DMEM-high glucose (Millipore Sigma) supplemented with 5% fetal bovine serum (Corning) and penicillin-streptomycin (Millipore Sigma). Receptor constructs used were the full-length wild-type (or mutant) human OX1R and OX2R sequences cloned into pCDNA3. To enhance the Emax in the IP assay, a plasmid encoding full-length human Gαq subunit[66] was co-transfected into HEK293 cells with plasmids encoding orexin receptor constructs using Lipofectamine 3000 (Thermo Fisher). 24 h after transfection, the cells were plated on poly-D-lysine coated (Millipore Sigma) tissue culture-treated 96 well white plates with clear bottoms (Perkin Elmer) at 30,000 cells per well in Inositol-free DMEM (MP Biomedicals) supplemented with 5% fetal bovine serum, 4 mM L-glutamine (Millipore Sigma), penicillin-streptomycin, and about 5 uCi (5 ul) per ml myo-[2-3H] inositol (Perkin Elmer). The following day, the media was replaced with agonists that were diluted in HBSS (Millipore Sigma) containing 10 mM lithium chloride (Millipore Sigma) and incubated at 37 °C for 45 min. Then agonists were removed and cells were lysed on ice for 30 min with 10 mM formic acid (Millipore Sigma). 1.25 mg of poly-lysine coated YSI SPA beads (Perkin Elmer) was added to each well. The plates were mixed on an orbital shaker for 30 min. The plates were read on a MicroBeta scintillation counter (Perkin Elmer) the following day. IP accumulation assays on different constructs were performed in n ≥ 3 independent experiments (each done in duplicate), where n is shown in Supplementary Table 2.

OX2R Q134A = target: T3, OX2R Q134A (Homo sapiens, UniProt O43614, Q134A); experiment: β-arrestin PathHunter assay, OX2R Q134A; parameters: expressed in transfected cells; host or cells: CHO-K1 stably expressing EA β-arrestin2
T3 sequence (O43614 1-444 Q134A): T2 sequence (O43614 1-444 T111S) with S111T, Q134A
Method: as §1

OX2R K327A = target: T4, OX2R K327A (Homo sapiens, UniProt O43614, K327A); experiment: β-arrestin PathHunter assay, OX2R K327A; details: β-arrestin recruitment
T4 construct: expressed in transfected cells; host or cells: CHO-K1 stably expressing EA β-arrestin2
T4 sequence (O43614 whole entry K327A): as the sequence (O43614 whole entry R328A) above, with K327A, A328R counted along it
Method: as §1

COC(=O)N1CCC[C@H](NS(C)(=O)=O)[C@@H]1CO[C@H]1CC[C@@H](c2ccccc2)CC1 [TAK-925, methyl (2R,3S)−3-[(methylsulfonyl)amino]−2-{[(cis−4-phenylcyclohexyl)oxy]methyl}piperidine-1-carboxylate]
pEC50 (OX2R R328A): 5.52
pEC50 (OX2R T111S; IP accumulation): 6.64
% IP accumulation (OX2R T111S; TAK-925 conc (log, M) -4.00, normalized to OX2R WT Emax): 70.98% and 87.26% and 72.84%
% IP accumulation (OX2R T111S; TAK-925 conc (log, M) -4.48): 81.25% and 84.62% and 46.26%
% IP accumulation (OX2R T111S; TAK-925 conc (log, M) -4.95): 89.34% and 80.76% and 67.67%
% IP accumulation (OX2R T111S; TAK-925 conc (log, M) -5.43): 71.72% and 74.73% and 72.02%
% IP accumulation (OX2R T111S; TAK-925 conc (log, M) -5.91): 64.42% and 69.82% and 64.34%
% IP accumulation (OX2R T111S; TAK-925 conc (log, M) -6.39): 51.66% and 41.45% and 43.47%
% IP accumulation (OX2R T111S; TAK-925 conc (log, M) -6.86): 34.40% and 35.79% and 28.55%
% IP accumulation (OX2R T111S; TAK-925 conc (log, M) -7.34): 18.97% and 17.10% and 14.95%
% IP accumulation (OX2R T111S; TAK-925 conc (log, M) -7.82): 8.44% and 12.15% and 9.41%
% IP accumulation (OX2R T111S; TAK-925 conc (log, M) -8.29): 4.76% and 0.00% and 2.26%
% IP accumulation (OX2R T111S; TAK-925 conc (log, M) -8.77): 0.00% and 8.93%
Emax (OX2R T111S; relative to OX2R WT/TAK-925): 76
β-arrestin recruitment, change on mutation of Gln134 (OX2R Q134A): large reductions
EC50 (OX2R Q134A; β-arrestin recruitment, pEC50 ± SEM, read-out: pEC50 (converted)): > 30200 nM
pEC50 (OX2R Q134A; β-arrestin recruitment, read-out: EC50): < 4.52
pEC50 (OX2R K327A): 5.64
